Assay results reported in patent publication US7893077B2, “Bisaryl-sulfonamides” (Amgen Inc., priority 2004, dated 2011).

Biological target: T1, PPARγ (Homo sapiens, UniProt P37231)
T1 construct: made in house
T1 sequence (P37231 1-505): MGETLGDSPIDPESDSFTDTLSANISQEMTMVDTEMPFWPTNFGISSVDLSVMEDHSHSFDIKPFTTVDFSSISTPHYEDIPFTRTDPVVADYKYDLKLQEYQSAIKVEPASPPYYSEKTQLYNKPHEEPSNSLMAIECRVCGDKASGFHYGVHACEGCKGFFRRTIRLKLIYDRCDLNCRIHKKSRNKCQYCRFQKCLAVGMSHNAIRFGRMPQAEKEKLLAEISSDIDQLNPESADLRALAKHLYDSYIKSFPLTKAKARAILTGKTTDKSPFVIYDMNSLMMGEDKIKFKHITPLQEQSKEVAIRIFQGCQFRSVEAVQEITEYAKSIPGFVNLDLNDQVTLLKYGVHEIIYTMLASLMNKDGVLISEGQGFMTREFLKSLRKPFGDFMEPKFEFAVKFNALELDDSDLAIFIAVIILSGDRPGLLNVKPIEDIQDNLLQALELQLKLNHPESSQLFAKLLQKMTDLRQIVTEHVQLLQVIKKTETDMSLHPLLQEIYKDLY
Assay: PPARγ ligand binding assay utilizing [3H]-BRL 49653 as the radioligand (filtration)
Conditions: concentration required to reduce by 50% the specific binding of [3H]-BRL 49653
Procedure, shortened: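 Displacement of 10 nM [3H]-BRL 49653 from PPARγ-GST fusion protein in Tris-HCl pH 8.0 buffer with KCl, DTT, BSA and NP-40, 15 min incubation, then glutathione-bead capture for 1 h. Bound radioactivity counted after filtration washes; IC50 is concentration giving 50% loss of specific binding, reported in ranges.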

`O=C(c1cc(NS(=O)(=O)c2ccc(C(F)(F)F)cc2Cl)ncc1Sc1ccc(S(=O)(=O)N2CCOCC2)cc1)C1CC1` [Compound 129, 2-Chloro-N-{4-cyclopropanecarbonyl-5-[4-(morpholine-4-sulfonyl)-phenylsulfanyl]-pyridin-2-yl}-4-trifluoromethyl-benzenesulfonamide] and `Cc1cc(NS(=O)(=O)c2ccc(Cl)cc2Cl)ncc1Sc1ccc(S(=O)(=O)N2CCOCC2)cc1` [Compound 75, 2,4-Dichloro-N-{4-methyl-5-[4-(morpholine-4-sulfonyl) -phenylsulfanyl]-pyridin-2-yl}-benzenesulfonamide] cannot be ordered by IC50: < 1 µM for the first, < 1 µM for the second.

`Cc1nc(NS(=O)(=O)c2ccc(Cl)cc2)ncc1Sc1ccc(S(=O)(=O)N2CCCCC2)cc1` [Compound 51, 4-Chloro-N-{4-methyl-5-[4-(piperidine-1-sulfonyl) -phenylsulfanyl]-pyrimidin-2-yl}-benzenesulfonamide] and `CCCNc1nc(NS(=O)(=O)c2ccc(OC)cc2)ncc1Sc1ccc(S(=O)(=O)N2CCCCC2)cc1` [Compound 23, 4-Methoxy-N-{5-[4-(piperidine-1-sulfonyl)-phenylsulfanyl]-4-propylamino-pyrimidin-2-yl}-benzenesulfonamide] cannot be ordered by IC50: < 10 µM for the first, < 10 µM for the second.

`O=C(c1nc(NS(=O)(=O)c2ccc(Cl)cc2Cl)ccc1Sc1ccc(S(=O)(=O)N2CCCC2)cc1)C1CC1` [Compound 95, 2,4-Dichloro-N-{6-cyclopropanecarbonyl-5-[4-(pyrrolidine-1-sulfonyl)-phenylsulfanyl]-pyridin-2-yl}-benzenesulfonamide] and `CCCC(=O)c1nc(NS(=O)(=O)c2ccc(Cl)cc2Cl)ccc1Sc1ccc(S(=O)(=O)N2CCCCC2)cc1` [Compound 73, N-{6-Butyryl-5-[4-(piperidine-1-sulfonyl)-phenylsulfanyl]-pyridin-2-yl}-2,4-dichloro-benzenesulfonamide] cannot be ordered by IC50: < 1 µM for the first, < 1 µM for the second.

`O=C(c1nc(NS(=O)(=O)c2ccc(C(F)(F)F)cc2Cl)ccc1Sc1ccc(S(=O)(=O)C2CCCC2)cc1)C1CC1` [Compound 115, 2-Chloro-N-[5-(4-cyclopentanesulfonyl-phenylsulfanyl)-6-cyclopropanecarbonyl-pyridin-2-yl]-4-trifluoromethyl-benzenesulfonamide] and `CCCC(=O)c1nc(NS(=O)(=O)c2ccc(C(F)(F)F)cc2Cl)ccc1Sc1ccc(S(=O)(=O)N2CCCC2)cc1` [Compound 97, N-{6-Butyryl-5-[4-(pyrrolidine-1-sulfonyl)-phenylsulfanyl]-pyridin-2-yl}-2-chloro-4-trifluoromethyl-benzenesulfonamide] cannot be ordered by IC50: < 1 µM for the first, < 1 µM for the second.

`CCCC(=O)c1nc(NS(=O)(=O)c2ccc(C(F)(F)F)cc2Cl)ccc1Sc1ccc(S(=O)(=O)N(CC)CC)cc1` [Compound 99, N-[6-Butyryl-5-(4-diethylsulfamoyl-phenylsulfanyl)-pyridin-2-yl]-2-chloro-4-trifluoromethyl-benzenesulfonamide] and `CCCC(=O)c1nc(NS(=O)(=O)c2ccc(Cl)cc2Cl)ccc1Sc1ccc(S(=O)(=O)N2CCOCC2)cc1` [Compound 78, N-{6-Butyryl-5-[4-(morpholine-4-sulfonyl)-phenylsulfanyl]-pyridin-2-yl}-2,4-dichloro-benzenesulfonamide] cannot be ordered by IC50: < 1 µM for the first, < 1 µM for the second.

`CCCN(C)c1nc(NS(=O)(=O)c2ccc(Cl)cc2Cl)ncc1Sc1ccc(S(=O)(=O)N2CCCCC2)cc1` [Compound 15, 2,4-Dichloro-N-{4-(methyl-propyl-amino)-5-[4-(piperidine-1-sulfonyl)-phenylsulfanyl]-pyrimidin-2-yl}-benzenesulfonamide] and `CCNc1nc(NS(=O)(=O)c2ccc(Cl)cc2Cl)ncc1Sc1ccc(S(=O)(=O)N2CCCCC2)cc1` [Compound 13, 2,4-Dichloro-N-{4-ethylamino-5-[4-(piperidine-1-sulfonyl) -phenylsulfanyl]-pyrimidin-2-yl}-benzenesulfonamide] cannot be ordered by IC50: < 1 µM for the first, < 1 µM for the second.

`CCCCc1nc(NS(=O)(=O)c2ccc(OC)cc2)ncc1Sc1ccc(S(=O)(=O)N2CCCCC2)cc1` [Compound 45, N-{4-Butyl-5-[4-(piperidine-1-sulfonyl)-phenylsulfanyl]-pyrimidin-2-yl}-4-methoxy-benzenesulfonamide] and `CC(C)CNc1nc(NS(=O)(=O)c2ccc(Cl)cc2Cl)ncc1Sc1ccc(S(=O)(=O)N2CCCCC2)cc1` [Compound 20, 2,4-Dichloro-N-{4-isobutylamino-5-[4-(piperidine-1-sulfonyl)-phenylsulfanyl]-pyrimidin-2-yl}-benzenesulfonamide] cannot be ordered by IC50: < 1 µM for the first, < 1 µM for the second.

`CON(C)C(=O)c1nc(NS(=O)(=O)c2ccc(Cl)cc2Cl)ccc1Sc1ccc(S(=O)(=O)N2CCCCC2)cc1` [Compound 72, 6-(2,4-Dichloro-benzenesulfonylamino)-3-[4-(piperidine-1-sulfonyl)-phenylsulfanyl]-pyridine-2-carboxylic acid methoxy-methyl-amide] and `Cc1nc(NS(=O)(=O)c2ccc(C(F)(F)F)cc2Cl)ncc1Sc1ccc2ccccc2c1` [Compound 59, 2-Chloro-N-[4-methyl-5-(naphthalen-2-ylsulfanyl)-pyrimidin-2-yl]-4-trifluoromethyl-benzenesulfonamide] cannot be ordered by IC50: < 1 µM for the first, < 10 µM for the second.
